Reference: US11702402B2, “Small molecules that block proteasome-associated ubiquitin receptor RPN13 function and uses thereof” (DANA-FARBER CANCER INSTITUTE, INC., priority 2018, dated 2023)

What was measured:
MM.1S cells = test: Annexin V/PI apoptosis assay in MM.1S cells; format: cell-based, Human; details: 200 nM, 16 hours
Experimental: FIGS. 22A to 22F show the mechanisms of WL40-induced MM cell death. […] MM.1S cells were treated with DMSO control or WL40 (200 nM) for 16 hours, and then analyzed for apoptosis using Annexin V/PI double staining assay (mean±SD; n=3; p<0.001). FIG. 22B is an immunoblot of MM.1S and ANBL6.BR cells, which were treated with DMSO control or WL40 (200 nM for MM.1S; 1 μM for ANBL6.BR) for 16 hours; protein lysates were then subjected to the immunoblotting using antibodies against poly ADP ribose polymerase (PARP), caspase-3, caspase-7, caspase-8, caspase-9, or β-actin. FL, full length; CF, cleaved fragment. FIG. 22C is a bar graph measuring enzymatic activity. MM.1S cells were treated with DMSO control or WL40 (200 nM) for 12 hours, followed by the measurement of caspase-3, caspase-8, or caspase-9 enzymatic activity (mean±SD; n=3; p<0.0001). FIG. 22D is an immunoblot of MM.1S and ANBL6.BR cells, which were treated with DMSO control or WL40 (200 nM for MM.1S; 1 μM for ANBL6.BR) for 16 hours; protein lysates were then subjected to the immunoblotting using specific antibodies against Cyclin-B1, Cell Division Cycle 25C (CDC25C), Cell Division Cycle 2 (CDCl2), or β-actin. […]

RPN13 = RPN13 (Homo sapiens, UniProt Q16186); test: Rpn13 immunoblot in RPMI-8226 cells; format: cell-based; set-up: endogenous in cells; host or cells: MM.1S; MM.1S-CRBN KO; RPMI-8226; ANBL6.BR; details: RPMI-8226 (p53-mutated); 400 nM; 16 hours
RPN13, sequence (Q16186 whole entry): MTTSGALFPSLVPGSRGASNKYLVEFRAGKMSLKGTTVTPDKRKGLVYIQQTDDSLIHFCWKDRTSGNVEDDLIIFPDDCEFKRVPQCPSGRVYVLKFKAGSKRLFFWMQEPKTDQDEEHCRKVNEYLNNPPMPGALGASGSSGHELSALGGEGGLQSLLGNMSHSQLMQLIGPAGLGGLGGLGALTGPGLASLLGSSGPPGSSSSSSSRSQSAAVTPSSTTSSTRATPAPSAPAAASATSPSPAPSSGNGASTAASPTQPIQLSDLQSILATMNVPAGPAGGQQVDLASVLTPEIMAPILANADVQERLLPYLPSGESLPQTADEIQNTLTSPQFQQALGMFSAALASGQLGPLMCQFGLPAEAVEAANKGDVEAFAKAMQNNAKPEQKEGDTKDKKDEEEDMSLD
Experimental: MM.1S cells, which were treated with DMSO control, bortezomib, or WL40 at indicated concentration for 3 hours; protein lysates were analyzed for different proteasome activities (CT-L, chymotrypsin-like; T-L, trypsin-like; C-L, caspase-like). FIG. 20B is a bar graph showing percent proteasome activity after normalization with DMSO control (mean±SD; n=3). Recombinant 20S proteasome was incubated with DMSO, bortezomib, or WL40 for 30 minutes, followed by assessment of the above-noted proteasome activities. FIG. 20C MM.1S cells were pretreated with exemplary proteasome inhibitor MG132 (10 μM) for 1 hour, followed by addition of WL40 (400 nM) for 8 hours. […] Total protein lysates were subjected to immunoblots for Rpn13 and α-tubulin. […] FIG. 20E ANBL6.BR cells were treated with WL40 (400 nM) or RA190 (500 nM) for 16 hours; protein lysates were subjected to immunoblot analysis using anti-Rpn13 or anti-β-actin Abs.
Cellular protein extracts were prepared using RIPA lysis buffer (50 mM Tris-HCl, 150 mM NaCl, 1% NP-40, 0.5% sodium deoxycholate, and 0.1% SDS). […]
Next, the effect of WL40 on additional MM cell lines, including p53-mutated RPMI-8226 cells or bortezomib-resistant ANBL6.BR cells, was evaluated. […]

CD138+ patient MM cells = test: Viability of CD138+ patient MM cells (CellTiter-Glo); format: cell-based; details: Homo sapiens, CD138+ patient MM cells (patients 1-4), 48 hours, read-out: cell viability IC50 range
Experimental: The IC50 of WL40 for cell lines is shown.
Human MM cell lines MM.1S, MM.1R, RPMI-8226, ANBL6.WT, ANBL6.BR, DOX40, INA6, and normal PBMCs were cultured in RPMI1640 complete medium. Informed consent was obtained from ah patients in accordance with the Helsinki protocol. MM CD138-positive cells, bone marrow stromal cells (BMSCs), and plasmacytoid dendritic cells (pDCs) from MM patients were isolated and cultured as described previously.^32

Which results are given for `O=C1CCC(N2C(=O)c3cccc(NCCOCCOCCOCCC(=O)N[C@@H](Cc4ccccc4)C(=O)N4C/C(=C\c5ccc(Cl)c(Cl)c5)C(=O)/C(=C/c5ccc(Cl)c(Cl)c5)C4)c3C2=O)C(=O)N1` (stereo partly drawn) [WL40]?
apoptosis (Annexin V/PI) (MM.1S cells): increase in early- (Annexin V^+/PI^−) and late-stage (Annexin V^+/PI^+) apoptosis; Rpn13 levels (immunoblot) (RPN13): induced RPN13 degradation; IC50 (CD138+ patient MM cells): 95 to 170 nM
